{"source": "patent US8895522B2", "about": "“Composition and method for the prevention, treatment and/or alleviation of an inflammatory disease” (Index Pharmaceuticals AB, priority 2005, dated 2014)", "key": {"human PBMC [1]": {"tested_on": "human PBMC", "experiment": "Induction of IL-10 from healthy human PBMC (ELISpot)", "type": "cell-based", "details": "PBMC from 5 healthy individuals, 48 hours", "description": "Whole blood was obtained from healthy blood donors. PBMCs were prepared from 30 ml whole blood according to the following protocol:\n30 ml blood was transferred directly into heparinized tubes. All blood was transferred into one 50 ml Falcon tube and PBS added up to 50 ml. 15 ml Ficoll (17-1440-03, obtained from Amersham Bioscience AB, Uppsala) was then added into two falcon tubes (50 ml). The PBS-treated blood was then carefully added on the top of to Ficoll, 25 ml to each tube. The tubes were then centrifuged 25 min at 1700 RPM at RT (20° C.).\nRPMIc medium was prepared under sterile conditions, using a 0.22 uM filter. (RPMIc denotes a RPMI 1640 culture medium (R0883, Sigma) supplemented with 5% heat-inactivated (56° C.,1 h) FCS 1.5 mM L-glutamine (G7513, Sigma), 100 U/ml penicillin and 100 ug/ml streptomycin, PEST (P0781, Sigma), hepes (H0887, Sigma), and gentamycin (G1272, Sigma)).\nThe interphase was carefully pipetted from the two tubes into 2x 50mi Falcon tubes. PBS was added up to 50 ml in each tube, and the tubes centrifuged for 10 min at 1700 RPM (4° C.).\nThe supernatant was discarded, and PBS added to 30 ml, whereupon the tubes were centrifuged at 10 min at 1500 RPM (4° C.). Again, the supernatant was discarded, 10 ml PBS added, and the pellets from the two falcon tubes pooled.\nThe cells were counted and left in PBS, then centrifuged at 1200 RPM, 10 min. Medium was then added to obtain the concentration of interest, and the cells counted (16 squares)×3. The mean value was calculated and multiplied with the dilution factor×10^4=cells/ml. Diluting the cells to 10 million/ml will result in 500.000 cells/50 ul medium, 6 million/ml will be 300.000/50 ul medium.\nElispot assays where performed according to the manufactures recommended guidelines (MabTech) and the plates were analyzed using an AID ELISpot reader system (Autoimmun Diagnostika GmbH, Strassberg, Germany).\nApproximately 500,000 PBMC cells per well, derived from blood from healthy human donors, were incubated for 48 hours in the presence of the different oligonucleotides. Specifically, SEQ.ID.NO 1, SEQ.ID.NO 2, SEQ.ID.NO 6 and SEQ.ID.NO 8. Following incubation, the wells were developed according to the kit supplier's recommendations and the average number of positive cells producing IL-10 per well were counted using an AID ELISpot reader system, (Autoimmun Diagnostika GmbH, Strassberg, Germany)."}, "human PBMC [2]": {"tested_on": "human PBMC", "experiment": "IL-10 induction from healthy human PBMC by SEQ.ID.NO 1 after dexamethasone pre-incubation (ELISA)", "type": "cell-based", "description": "ELISA assays where performed according to the manufactures recommended guidelines (R&D systems). Plates were analyzed using AID ELISpot reader system (Autoimmun Diagnostika GmbH, Strassberg Germany).\nFor this assay again 500,000 PBMC cells per well, derived from blood from healthy human donors, were incubated for 12 hours in the presence of various concentrations of dexamethasone, after which, the cells were washed and fresh medium as added. The cells were then allowed to further incubate in the presence of either 25 uM or 100 uM of SEQ.ID.NO 1 for an additional 24 hours after which levels of IL-10 were measured using a commercial available IL-10 ELISA kit."}, "[3]": {"tested_on": "steroid refractory/dependent IBD patients (ulcerative colitis and Crohn's disease)", "experiment": "Human pilot proof of concept study in steroid resistant/dependent patients", "type": "in vivo", "details": "for Clinical response at week 1, responders: 5/7 patients, on concomitant steroid therapies", "description": "A small pilot study was conducted in steroid refractory/dependent IBD patients with the following objectives.\nPrimary objective: To assess the safety issues regarding the use of the DNA based oligonucleotide denoted as SEQ.ID.NO.1 in ulcerative colitis and Crohn's disease patients.\nSecondary objective: To explore the clinical efficacy as determined by endoscopic and clinical remission/improvement rates, histological improvement and changes in clinical laboratory parameters.\nThe study was placebo controlled; double blinded single dose and considered patients that were unresponsive to corticosteroids or corticosteroid dependent who where on concomitant steroid therapies.\nDoses levels used were 3 mg and 30 mg given as a single rectal administration"}, "[4]": {"details": "single rectal administration 3 mg or 30 mg"}}, "note": "Entries after “also recorded” stand apart in the source; their conditions may differ. In the oligonucleotide strings, read from the 5' end, every base follows the letter of its sugar. An asterisk marks phosphorothioate; unmarked linkages are phosphodiester. Other units and linkages are bracketed, terminal groups are in braces. A string of capitals states the bases alone. d = 2'-deoxy (DNA)"}
{"substance": "5′-G*G*A*ACAGTTCGTCCAT*G*G*C-3′ (DNA dG*dG*dA*dAdCdAdGdTdTdCdGdTdCdCdAdT*dG*dG*dC) [SEQ.ID.NO 1, (Hu p65)AS, CpG-containing ODN; * marks phosphorothioate linkage, others phosphodiester]", "values": [{"measurement": "concentration from which IL-10 producing cells are induced", "setting": "human PBMC [1]", "result": "around 5 uM"}, {"measurement": "induction of IL-10 producing cells", "setting": "human PBMC [1]; FIG. 11", "result": "clear potential to induce IL-10 producing cells"}, {"measurement": "IL-10 production", "setting": "human PBMC [2]; 25 uM SEQ.ID.NO 1 for 24 hours after 12 hours prior incubation with dexamethasone", "result": "little production of IL-10"}, {"measurement": "IL-10 production", "setting": "human PBMC [2]; 100 uM SEQ.ID.NO 1 for 24 hours after 12 hours prior incubation with dexamethasone (most apparent at 10^−10 M)", "result": "dramatic increase in the amount of IL-10 produced; also recorded: levels higher than either mono treatment alone"}, {"measurement": "time to response of responding patients", "setting": "[3]; after single rectal administration", "result": "within a week"}, {"measurement": "patients still in remission and steroid free", "setting": "[3]; of the 7 patients that received the drug", "result": "two from the 7 patients"}, {"measurement": "serious adverse events", "setting": "[3]; [4]", "result": "no serious adverse events were recorded"}, {"measurement": "Clinical response at week 1, responders", "setting": "[3]; [4]", "result": 71, "unit": "%"}, {"measurement": "Clinical response at week 1, responders", "setting": "[3]; single rectal administration 3 mg or 30 mg, listed as Active", "result": 71, "unit": "%"}, {"measurement": "efficacy", "setting": "[3]; single rectal administration, 3 mg and 30 mg dose groups", "result": "good efficacy in both dose groups"}]}
